Reference: article PMC5790914, “QStatin, a Selective Inhibitor of Quorum Sensing in Vibrio Species” (mBio, 2018)

Biological target: T1, SmcR (Vibrio vulnificus, UniProt Q9L8G8)
T1 construct: purified SmcR (dimer); SeMet-substituted SmcR for the crystals
Assay: ITC (two-sequential binding model; second Kd =[…]) and […] Å crystal structure of the soaked complex

T1 sequence (Q9L8G8 entry or part of it): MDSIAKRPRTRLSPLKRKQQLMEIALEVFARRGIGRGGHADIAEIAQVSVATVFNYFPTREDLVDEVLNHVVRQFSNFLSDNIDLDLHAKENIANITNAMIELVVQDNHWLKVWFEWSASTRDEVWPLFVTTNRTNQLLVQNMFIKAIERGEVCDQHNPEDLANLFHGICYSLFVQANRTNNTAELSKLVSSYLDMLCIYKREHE

`O=S(=O)(c1ccc(Br)s1)n1cccn1` [377B6, 1-(5-bromothiophene-2-sulfonyl)-1H-pyrazole] was tested, and the Kd was 470 nM.
